# Results reported in patent US20260007601A1, “IONIZABLE CATIONIC LIPID COMPOUND AND COMPOSITION FOR DELIVERING NUCLEIC ACID AND USE THEREOF” (BEIJING YOUCAREKECHUANG PHARMACEUTICAL TECHNOLOGY CO., LTD., priority 2023, published 2026).
# Tests used:
# [1] = Particle size and polydispersity index (PDI) of nanolipid particles, dynamic light scattering; type: physicochemical; settings: LNP formulation prepared from the named cationic lipid, 25° C
# Procedure: The particle size and polydispersity index (PDI) were determined by dynamic light scattering method using a Malvern laser particle size analyzer. 10 μL of liposome solution was diluted to 1 mL with RNase-free deionized water and added to a sample pool. Each sample was measured three times. The measurement conditions were: 90° scattering angle, 25° C.
# [2] = Encapsulation rate, drug loading concentration and total RNA concentration detection (RiboGreen); type: physicochemical; settings: LNP formulation of the named lipid
# From the text: Encapsulation rate is a key quality attribute of liposomes. It refers to the percentage of drug content encapsulated in the lipid bilayer to the total amount of drug added, which can reflect the degree of drug encapsulation in liposomes. The Chinese Pharmacopoeia stipulates that the encapsulation rate should usually not be less than 80%.
# The drug loading capacity is the ratio of the amount of drug in the liposome to the total amount of drug and carrier in the liposome. The drug loading capacity directly affects the clinical application dose of the drug, so the larger the drug loading capacity, the more it can meet clinical needs. The drug loading concentration is proportional to the drug loading capacity, and the relative proportion of the drug loading concentration can represent the relative proportion of the drug loading capacity. The relative proportion of the total RNA concentration can represent the relative proportion of the amount of mRNA carried by the LNP formulation.
# 1×TE buffer, 0.1% Triton X-100 buffer, and RiboGreen reagent (1:200) and mRNA standard stock solution were prepared.
# An appropriate amount of sample was taken and added to an appropriate amount of 1×TE buffer, which was diluted to a solution containing about 2.8 μg of the test sample per 1 mL. Then the sample was added to a 96-well plate, where 50 μL of the diluted test sample or mRNA standard stock solution was added to each well, and then added with 1×TE buffer and 0.1% Triton X-100 buffer. The samples were incubated at 37° C. for 10 minutes, and 100 μL of RiboGreen reagent (1:200) was added to each well of the 96-well plate. The plate was centrifuged, and read using an ELISA reader, and the data was processed.
# 293T cells [3] = assay: Fluorescence detection of Fluc-mRNA (cell transfection efficiency of LNP formulations); type: cell-based; settings: for Relative light unit (RLU): LNP containing 0.3 μg Fluc-mRNA, 24 hours; for Multiples of values that equivalent to YK-201: RLU of YK-201 / RLU of the named lipid; for Multiples of values that equivalent to YK-202: RLU of YK-202 / RLU of the named lipid; for Ratio relative to SM-102: RLU of the named lipid / RLU of SM-102, times that of SM-102; for Multiples of values that equivalent to YK-209: RLU of YK-209 / RLU of the named lipid
# Procedure: (§1) Cell recovery and passaging: 293T cells were recovered and cultured in culture dishes to the required cell number.
# (§2) Plating: The cells in the culture dish were digested, counted, plated in a 96-well plate at 10,000 cells per well, or in a 12-well plate at 150,000 cells per well, and cultured overnight until the cells adhered to the wall.
# (§3) Cell recovery and passage: The method was the same as in Example 3.
# (§4) Plating: The method was the same as Example 3.
# The LNP formulation containing 0.3 μg Fluc-mRNA (prepared according to Example 4, the LNP formulation carrier components were cationic lipids, neutral lipids, structured lipids and polymer-conjugated lipids at a molar ratio of 49:10:39.5:1.5, and the cationic lipids were cationic lipids listed in Table 1) was added to the cell culture medium of a 96-well plate, and cultured for 24 hours. After that, the corresponding reagents were added according to the instructions of the Gaussia Luciferase Assay Kit, and the fluorescence expression intensity of each well was detected by the IVIS fluorescence detection system. This experiment verified the transfection efficiency of the LNP formulation in the cell, and the specific detection results are shown in Tables 6-9.
# 293T cells [4] = assay: Cell survival rate assay (CCK-8); type: cell-based; settings: LNP containing 1.5 μg Fluc-mRNA, 24 hours, CCK-8
# Procedure: as §1, §2, §3, §4
# The LNP formulations containing 1.5 μg Fluc-mRNA (prepared according to Example 4, the LNP formulation carrier components are cationic lipids, neutral lipids, structured lipids and polymer-conjugated lipids at a molar ratio of 49:10:39.5:1.5, wherein the cationic lipids are the cationic lipids listed in Table 1) and the Lipofectamine 3000 formulation were added to the cell culture medium of the 96-well plate, and the culture was continued for 24 hours. Then, 10 μL of CCK-8 solution was added to each well, and the culture plate was incubated in the incubator for 1 hour, and the absorbance at 450 nm was measured by a microplate reader.
# female BALB/C mice = assay: Mouse in vivo imaging of Fluc-mRNA LNP formulations; parameters: average radiation intensity (mRNA expression): unit not given here; settings: 10 μg Fluc-mRNA LNP intramuscularly
# Procedure: The LNP formulation containing 10 μg Fluc-mRNA (prepared according to Example 4) was injected intramuscularly into female BALB/C mice aged 4 to 6 weeks and weighing 17 to 19 g, and the mice were intraperitoneally injected with fluorescent imaging substrates at specific time points (6 h, 24 h, 48 h and 7 d) after administration. The mice moved freely for 5 minutes, and then the average radiation intensity (corresponding to the fluorescence expression intensity) of the protein expressed by the mRNA carried by the LNP in the mice was detected by IVIS Spectrum small animal in vivo imager. The test results are shown in Tables 14 to 17 and FIGS. 12 to 14.
Structure (SMILES),PDI [1],Particle size [1],Drug loading concentration [2],Encapsulation rate [2],Total RNA concentration [2],Relative light unit (RLU) (293T cells [3]),Multiples of values that equivalent to YK-201 (293T cells [3]),Multiples of values that equivalent to YK-202 (293T cells [3]),Ratio relative to SM-102 (293T cells [3]),Cell survival rate (293T cells [4]),average radiation intensity (mRNA expression) (female BALB/C mice; 6 h),average radiation intensity (mRNA expression) (female BALB/C mice; 24 h),average radiation intensity (mRNA expression) (female BALB/C mice; 48 h),average radiation intensity (mRNA expression) (female BALB/C mice; 7 d),Multiples of values that equivalent to YK-209 (293T cells [3])
"CCCCCCCCCCCCC(O)CN(C)CCCCCC(=O)OCC(CCCCCC)CCCCCCCC (centres unmarked) [HHMA, reference compound]",15.1%,135 nm,30.6 µg/mL,60.5%,37.84 µg/mL,2099714 RLU,13.56,14.27,1.26,65.56%,638870,109650,29445,5312,
"CCCCCCCCCCOC(=O)CCCN(CCCCCC(=O)OCC(CCCCCCCC)CCCCCCCC)CCOC(=O)SCCCN(C)C [YK-218, 2-octyldecyl-11-(4-(decyloxy)-4-oxobutyl)-2-methyl-7-oxo-8-oxo-6-thio-2,11-diazaheptane-17-carboxylate]",17.2%,222 nm,36.50 µg/mL,78.2%,46.66 µg/mL,607080 RLU,46.92,49.35,0.36,72.84%,,,,,34.69
"CCCCCCC(CCCCCC)CCOC(=O)CCCCCN(CCCCCC(=O)OCCC(CCCCCC)CCCCCC)CCN(C)CCO [YK-211, bis(3-hexylnonyl)-6,6-((2-(2-hydroxyethyl(methyl)amino)ethyl)azadialkyl)dihexanoate]",20.7%,222 nm,42.91 µg/mL,97.7%,43.92 µg/mL,1370100 RLU,20.79,21.87,0.82,52.30%,,,,,15.37
CCCCCCCCCCCOC(=O)CCCCCN(CCCCCCCC(=O)OCCC(CCCCCC)CCCCCC)CCN(C)CCO [YK-203],23.7%,235 nm,38.38 µg/mL,91.0%,42.19 µg/mL,3869614 RLU,7.36,7.74,2.32,35.56%,,,,,5.44
